# Assay results reported in patent US11498923B2 (Merck Sharp & Dohme Corp., priority 2017, dated 2022).
# Biological target: T1, human A2a receptor (Homo sapiens, UniProt P29274)
# T1 construct: purchased Perkin-Elmer RBHA2AM400UA; host or cells: HEK293 cells, used as a membrane preparation
# Experiment: A2a receptor competition binding assay (Scintillation Proximity)
# Settings: membranes from HEK293 cells expressing human A2a receptor; 0.5 nM tritiated ligand; Cheng-Prusoff; read-out: A2a Ki
# Summary of the method: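 Ki values were obtained with the Cheng-Prusoff equation from competition curves against 0.5 nM tritiated antagonist, scintillation proximity counting after 1 h room-temperature incubation. Receptor came from HEK293 membranes pretreated with adenosine deaminase; compound final range 3000–0.15 nM, buffer Ca/Mg-free PBS with 10 mM MgCl2.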
# T1 sequence (P29274 whole entry): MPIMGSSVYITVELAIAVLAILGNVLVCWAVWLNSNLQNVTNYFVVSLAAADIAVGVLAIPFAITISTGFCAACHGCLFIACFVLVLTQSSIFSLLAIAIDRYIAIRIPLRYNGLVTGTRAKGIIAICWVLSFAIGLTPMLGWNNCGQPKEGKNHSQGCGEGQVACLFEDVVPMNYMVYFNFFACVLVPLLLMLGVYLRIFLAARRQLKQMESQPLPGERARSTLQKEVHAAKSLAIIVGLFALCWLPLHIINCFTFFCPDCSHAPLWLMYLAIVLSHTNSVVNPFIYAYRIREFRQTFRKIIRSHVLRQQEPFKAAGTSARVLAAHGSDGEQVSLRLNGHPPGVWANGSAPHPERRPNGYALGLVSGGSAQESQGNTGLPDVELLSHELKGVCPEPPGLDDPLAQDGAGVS
row,Ki [nM],Compound
1,53,"CC(C)(C)OC(=O)N1CCC2(CCN(C(=O)c3cn4c(N)nc5c(F)cccc5c4n3)CC2)C1 [Ex-262, tert-butyl 8-(5-amino-7-fluoroimidazo[1,2-c]quinazoline-2-carbonyl)-2,8-diazaspiro[4.5]decane-2-carboxylate]"
2,15,"COc1cccc2c1nc(N)n1cc(Cc3ccc(N4CCOCC4)cc3)nc21 [Ex-41, 7-methoxy-2-(4-morpholinobenzyl)imidazo[1,2-c]quinazolin-5-amine]"
3,100,"Nc1nc2c(F)cccc2c2nc(CC3CCN(C(=O)c4cccnc4)CC3)cn12 [Ex-317, (4-((5-amino-7-fluoroimidazo-[1,2-c]quinazolin-2-yl)methyl)piperidin-1-yl)(pyridin-3-yl)-methanone]"
4,7.7,"Nc1nc2c(F)ccc(Br)c2c2nc(Cc3ccccc3)cn12 [Ex-12, 2-benzyl-10-bromo-7-fluoroimidazo[1,2-c]quinazolin-5-amine]"
5,4.5,"CC(C)(C)OC(=O)N1CCN(c2ccccc2CNC(=O)c2cn3c(N)nc4c(F)cccc4c3n2)CC1 [Ex-256, tert-butyl 4-(2-((5-amino-7-fluoroimidazo[1,2-c]quinazoline-2-carboxamido)methyl)phenyl) piperazine-1-carboxylate]"
6,14,"COc1cccc2c1nc(N)n1cc(Cc3ccc(N4CCN(C(C)=O)CC4)cc3)nc21 [Ex-44, 1-(4-(4-((5-amino-7-methoxyimidazo[1,2-c]quinazolin-2-yl)methyl)phenyl)piperazin-1-yl)ethan-1-one]"
7,11,"COc1cccc2c1nc(N)n1cc(C(=O)N3CCC4(CCCC4)C3)nc21 [Ex-222, (5-amino-7-methoxyimidazo[1,2-c]quinazolin-2-yl)(2-azaspiro[4.4]nonan-2-yl)methanone]"
8,96,"COc1ccc(N2CCN(CCc3cn(Cc4cn5c(N)nc6c(F)cccc6c5n4)nn3)CC2)cc1 [Ex-97, 7-fluoro-2-((4-(2-(4-(4-methoxyphenyl)piperazin-1-yl)ethyl)-1H-1,2,3-triazol-1-yl)methyl)imidazo[1,2-c]quinazolin-5-amine]"
9,3.6,"Nc1nc2ccc(F)cc2c2nc(Cc3ccccc3)cn12 [Ex-08, 2-benzyl-9-fluoroimidazo[1,2-c]quinazolin-5-amine]"
10,26,"Nc1nc2c(F)cccc2c2nc(CC3CCN(C(=O)c4cccc(Br)n4)CC3)cn12 [Ex-322, (4-((5-amino-7-fluoroimidazo[1,2-c]quinazolin-2-yl)-methyl)piperidin-1-yl)(6-bromopyridin-2-yl)methanone]"
11,7.2,"Nc1nc2c(F)cccc2c2nc(C(=O)NCc3cccc(N4CCN(c5ccc(F)cc5F)CC4)c3)cn12 [Ex-252, 5-amino-N-(3-(4-(2,4-difluorophenyl)piperazin-1-yl)benzyl)-7-fluoroimidazo[1,2-c]quinazoline-2-carboxamide]"
12,380,"Nc1nc2c(F)cccc2c2nc(C(=O)N3CCC4(CCNC4)C3)cn12 (stereo not shown) [Ex-272, (5-amino-7-fluoroimidazo[1,2-c]quinazolin-2-yl)(2,7-diazaspiro[4.4]nonan-2-yl)methanone]"
13,110,"Nc1nc2c(F)cccc2c2nc(C(=O)N3CCC4(CCN(Cc5ccc(F)cc5)C4)C3)cn12 (stereo not shown) [Ex-273, (5-amino-7-fluoroimidazo[1,2-c]quinazolin-2-yl)(7-(4-fluorobenzyl)-2,7-diazaspiro[4.4]nonan-2-yl)methanone]"
14,35,Cc1noc(C)c1-c1cccc2c1nc(N)n1cc(Cc3ccccc3)nc21 [Ex-152]
15,2.3,"COc1cccc2c1nc(N)n1cc(C(=O)N3CCCC4(CC4)C3)nc21 [Ex-174, (5-amino-7-methoxyimidazo[1,2-c]quinazolin-2-yl)(5-azaspiro[2.5]octan-5-yl)methanone]"
16,20,Nc1nc2c(F)cccc2c2nc(Cc3ccccc3CN3CCN(c4nc5ccccc5o4)CC3)cn12
17,3,"Nc1nc2c(F)cccc2c2nc(Cc3cccc(CN4CCOCC4)c3)cn12 [Ex-33, 7-fluoro-2-(3-(morpholinomethyl)benzyl)imidazo[1,2-c]quinazolin-5-amine]"
18,91,"Nc1nc2c(F)cccc2c2nc(C(=O)N3CCc4cccc(CN5CCN(c6ccccn6)CC5)c4C3)cn12 [Ex-251, (5-amino-7-fluoroimidazo[1,2-c]quinazolin-2-yl)(8-((4-(pyridin-2-yl)piperazin-1-yl)methyl)-3,4-dihydroisoquinolin-2(1H)-yl)methanone]"
19,11.2,"COc1cccc2c1nc(N)n1cc(Cn3cc(COC(C)=O)nn3)nc21 [Ex-99, (1-((5-amino-7-methoxyimidazo[1,2-c]quinazolin-2-yl)methyl)-1H-1,2,3-triazol-4-yl)methyl acetate]"
